Results on seven compounds are retold here after ChEMBL document CHEMBL1255547, “Preparation and characterization of novel 4-bromo-3,4-dimethyl-1-phenyl-2-phospholene 1-oxide and the analogous phosphorus heterocycles or phospha sugars” (Bioorg Med Chem Lett, 2010).

The assay has as its system U-937. Put plainly: Cytotoxicity against human U937 cells after 48 hrs by MTT assat. It is filed as functional, cell-based. The note with it: U-937, 48 h.
Consider `O=P1(c2ccccc2)C=CCC1` (configuration not stated), for which the IC50 is > 1000 µM.

The compound `CC1=CP(=O)(c2ccccc2)CC1` (configuration not stated) yielded an IC50 of 900 µM.

Take `CC1=CP(=O)(c2ccccc2)CC1C` (configuration not stated): the IC50 was found to be 350 µM.

For the compound `O=P1(c2ccccc2)C=CC(Br)C1` (configuration not stated), the IC50 is > 1000 µM.

The compound `CC1=CP(=O)(c2ccccc2)CC1Br` (configuration not stated) gave a 50% inhibitory concentration (IC50) of 87 µM.

Take `CC1=CP(=O)(c2ccccc2)CC1(C)Br` (configuration not stated): the midpoint of inhibition, the IC50, lay at 5.6 µM.

As to `CCC1=CP(=O)(c2ccccc2)CC1Br` (configuration not stated), the IC50 was > 1000 µM.
